Measured values published in PubChem BioAssay AID248 (DTP/NCI, 2004).
Inconclusive results and toxic doses are left out. No stated cut-off is given here; in the data, active means T/C of 150% or more; inactive means T/C below 125%.

Test system: L1210 leukemia ip in BDF1 mice, survival T/C
Experiment: NCI In Vivo Anticancer Drug Screen. Data for tumor model L1210 Leukemia (intraperitoneal) in B6D2F1 (BDF1) mice
Settings: endpoint: mean survival time, higher = longer survival
In short: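 Survival endpoint. Drug-treated group vs vehicle group, expressed as T divided by C. Tumor passaged by transplantation.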

[1] = dose: 100.0 mg/kg/injection, schedule: Q04DX003 (ip), vehicle: Klucel (hydroxypropylcellulose) (HPC)
[2] = dose: 200.0 mg/kg/injection, schedule: Q04DX003 (ip), vehicle: Klucel (hydroxypropylcellulose) (HPC)
[3] = dose: 400.0 mg/kg/injection, schedule: Q04DX003 (ip), vehicle: Klucel (hydroxypropylcellulose) (HPC)
[4] = dose: 12.5 mg/kg/injection, schedule: Q01DX009 (ip), vehicle: saline
[5] = dose: 25.0 mg/kg/injection, schedule: Q01DX009 (ip), vehicle: saline
[6] = dose: 100.0 mg/kg/injection, schedule: Q01DX001 (ip), vehicle: saline
[7] = dose: 200.0 mg/kg/injection, schedule: Q01DX001 (ip), vehicle: saline
[8] = dose: 400.0 mg/kg/injection, schedule: Q01DX001 (ip), vehicle: saline
[9] = dose: 100.0 mg/kg/injection, schedule: Q04DX002 (ip), vehicle: saline
[10] = dose: 200.0 mg/kg/injection, schedule: Q04DX002 (ip), vehicle: saline

Measured: T/C

CN(Nc1c([N+](=O)[O-])cc([N+](=O)[O-])cc1[N+](=O)[O-])c1cccc2ccccc12
inactive: dose: 50.0 mg/kg/injection, schedule: Q01DX009 (ip), vehicle: Klucel (hydroxypropylcellulose) (HPC) 106 % of control | dose: 100.0 mg/kg/injection, schedule: Q01DX009 (ip), vehicle: Klucel (hydroxypropylcellulose) (HPC) 97 % of control | [1] 98 % of control | dose: 200.0 mg/kg/injection, schedule: Q01DX009 (ip), vehicle: Klucel (hydroxypropylcellulose) (HPC) 97 % of control | [2] 98 % of control | dose: 400.0 mg/kg/injection, schedule: Q01DX009 (ip), vehicle: Klucel (hydroxypropylcellulose) (HPC) 102 % of control | [3] 90 % of control

O=[N+]([O-])c1c(Cl)nc2ccccn12
inactive: dose: 3.13 mg/kg/injection, schedule: Q01DX009 (ip), vehicle: saline 93 % of control | dose: 5.0 mg/kg/injection, schedule: Q01DX001 (ip), vehicle: saline 100 % of control | dose: 6.25 mg/kg/injection, schedule: Q01DX009 (ip), vehicle: saline 95 % of control | dose: 10.0 mg/kg/injection, schedule: Q01DX001 (ip), vehicle: saline 98 % of control | [4] 93 % of control | dose: 20.0 mg/kg/injection, schedule: Q01DX001 (ip), vehicle: saline 100 % of control | [5] 93 % of control | dose: 40.0 mg/kg/injection, schedule: Q01DX001 (ip), vehicle: saline 96 % of control | dose: 80.0 mg/kg/injection, schedule: Q01DX001 (ip), vehicle: saline 93 % of control | [6] 101 % of control | [7] 110 % of control | [8] 108 % of control

Cc1cc(C)c(C(O)C(=O)O)c(C)c1 (stereo unspecified)
inactive: dose: 75.0 mg/kg/injection, schedule: Q01DX001 (ip), vehicle: saline 108 % of control | dose: 150.0 mg/kg/injection, schedule: Q01DX001 (ip), vehicle: saline 97 % of control | dose: 300.0 mg/kg/injection, schedule: Q01DX001 (ip), vehicle: saline 101 % of control

Brc1ccc2[nH]c3c(c2c1)CSc1ccccc1-3
inactive: dose: 100.0 mg/kg/injection, schedule: Q04DX003 (ip), vehicle: saline with Tween-80 105 % of control | dose: 200.0 mg/kg/injection, schedule: Q04DX003 (ip), vehicle: saline with Tween-80 99 % of control | dose: 400.0 mg/kg/injection, schedule: Q04DX003 (ip), vehicle: saline with Tween-80 103 % of control

CCCCOCCCNC1=C(Cl)C(=O)c2ccccc2C1=O
inactive: dose: 12.5 mg/kg/injection, schedule: Q01DX001 (ip), vehicle: carboxymethylcellulose (CMC) 92 % of control | dose: 25.0 mg/kg/injection, schedule: Q01DX001 (ip), vehicle: carboxymethylcellulose (CMC) 96 % of control | dose: 50.0 mg/kg/injection, schedule: Q01DX001 (ip), vehicle: carboxymethylcellulose (CMC) 105 % of control

CC(=O)Oc1ccc(C[n+]2ccccc2)cc1
inactive: [4] 94 % of control | [5] 86 % of control | dose: 25.0 mg/kg/injection, schedule: Q04DX003 (ip), vehicle: saline 106 % of control | dose: 50.0 mg/kg/injection, schedule: Q04DX003 (ip), vehicle: saline 100 % of control

O=S1ON=C(c2ccccc2)N1c1ccccc1Cl (stereo unspecified)
inactive: [1] 93 % of control | [2] 93 % of control | [3] 88 % of control

O=[N+]([O-])c1ccc(N=Nc2c(Cl)cc(O)cc2Cl)cc1
inactive: dose: 25.0 mg/kg/injection, schedule: Q01DX009 (ip), vehicle: saline with Tween-80 96 % of control | dose: 50.0 mg/kg/injection, schedule: Q01DX009 (ip), vehicle: saline with Tween-80 89 % of control | dose: 100.0 mg/kg/injection, schedule: Q01DX009 (ip), vehicle: saline with Tween-80 89 % of control

CCC(C)(O)C(=O)O (stereo unspecified)
inactive: [9] 114 % of control | [10] 114 % of control

CN(C)C(=O)OC(C)(C)C
inactive: [9] 97 % of control | [10] 101 % of control | dose: 400.0 mg/kg/injection, schedule: Q04DX002 (ip), vehicle: saline 97 % of control

C(Cc1ccccc1)=Nc1ccc(N=CCc2ccccc2)cc1
inactive: [6] 103 % of control | [7] 112 % of control | [8] 110 % of control
